No end group written: not given here.
Test system: P. aeruginosa PAO1
Assay: microbe, parasite or virus in culture
Procedure: The MIC tests were performed in triplicate using broth microdilution in accordance with Clinical and Laboratory Standards Institute (CLSI) recommendations (http://iacld.ir/DL/public/CLSI-2018-M100-S28.pdf). Briefly, drugs were two-fold diluted in MHB and mixed with an equal volume of bacterial suspensions containing approximately 1 × 10^6 CFU/mL in 96-well microliter plate. After 18 h incubation at 37 °C, the MIC values were defined as the lowest concentrations of antibiotics with no visible growth of bacteria. […] Otherwise, 1/4 MIC of the peptide was used in the combination. […] If needed, membrane compounds PG, PE, PC, CL or LPS, or membrane stabilizers MgCl2 or CaCl2, or efflux pumps inhibitor PAβN were added to the broth medium to clarify the effect of other substances on the synergy between peptide and antibiotics. All the tests were performed in triplicate.
The fractional inhibitory concentration (FIC) indices were calculated using the previously described formula FICI = FICa + FICb = MICac/MICa + MICbc/MICb. The FICI was interpreted according to EUCAST [65] as follows: synergistic, FICI≤0.5; additive, 0.5<FICI≤1; indifferent, 1<FICI<2; antagonistic, FICI ≥2. For the FICI calculations, twice the highest concentration tested was used in the cases where the MIC was not reached.

[1] = PAO1, peptide + azithromycin, twice the highest concentration used where MIC not reached
[2] = peptide alone, PAO1, broth microdilution in MHB, 18 h, 37 °C, triplicate

Substance | FICI [1] | MICb: the MIC of the peptide [2] | MICb: the MIC of the peptide (PAO1, 18 h) | further results
GNNRPVYIPQPRPPHPRL [Api1b] | 1.125 | > 32 µM | – | –
KHVGKALKGLK [ADP-1b] | – | – | > 32 µM | –
KIAKVALKALK [PEP10] | 1.125 | > 32 µM | – | –
KRIVQRIKKWLR-NH2 [KR-12-a2] | – | – | 32 µM | MIC of the peptide (PAO1, 18 h): ≥ 32 µM
LKGLKGLLKGL [ADP-1c] | – | – | > 32 µM | –
LKGLKGLLKGLGEC [ADP-1a] | – | – | > 32 µM | –
NGVQPKYK [PEP9] | – | – | > 32 µM | –
RIVQRIKKWLR-NH2 [Peptide L-11] | – | – | 32 µM | MIC of the peptide (PAO1, 18 h): ≥ 32 µM
RIVQWIKKWLR-NH2 [Peptide L-11-R5W] | 1.250 | 4 µM | – | –
RIWVIWRR-NH2 [Bac8c] | 1.250 | 4 µM | – | –
RLLFRKIRRLKR [EC5] | 0.188 | > 32 µM | – | FICI (PAO1, peptide + Azithromycin, higher peptide concentration line): <0.125; FICI (PAO1, peptide + Azithromycin, lower peptide concentration line): <0.281; FICI (PAO1, peptide + Clarithromycin, higher peptide concentration line): <0.313; FICI (PAO1, peptide + Clarithromycin, lower peptide concentration line): <0.281; FICI (PAO1, peptide + Erythromycin, higher peptide concentration line): <0.313; FICI (PAO1, peptide + Erythromycin, lower peptide concentration line): <0.281; FICI (PAO1, peptide + Spiramycin, higher peptide concentration line): 1.063; FICI (PAO1, peptide + Spiramycin, lower peptide concentration line): 1.031; FICI (PAO1, peptide + Telithromycin, higher peptide concentration line): <0.313; FICI (PAO1, peptide + Telithromycin, lower peptide concentration line): <0.531; MICb: the MIC of the peptide (S1 Table, peptide alone, PAO1): > 128 µM; MIC of the peptide (peptide alone, PAO1): ≥ 32 µM
RRLFRRILRWL-NH2 [RW-BP100] | 1.250 | 8 µM | – | –
VDKGSYLPRPTPPRPIYNRN-NH2 [Pyrrhocoricin] | 1.125 | > 32 µM | – | –
VDKPPYLPRPRPPRRIYNR-NH2 [Oncocin] | 1.125 | > 32 µM | – | –
